PubChem BioAssay (NCI)
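Following 48 hours of exposure in 96-well plates, responses at five concentrations were used to interpolate endpoints linearly. TGI denotes the concentration required for complete inhibition of growth.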

How the values were obtained:
Assay in all cases: growth of human tumour cells (NCI), 48 h
SN12C renal = system: SN12C renal
DMS 114 small cell lung = system: DMS 114 small cell lung
U251 CNS = system: U251 CNS
KM20L2 colon = system: KM20L2 colon
SF-268 CNS = system: SF-268 CNS
SW-620 colon = system: SW-620 colon
UACC-62 melanoma = system: UACC-62 melanoma
SF-539 CNS = system: SF-539 CNS
HOP-62 NSCLC = system: HOP-62 NSCLC
SNB-75 CNS = system: SNB-75 CNS
SK-MEL-28 melanoma = system: SK-MEL-28 melanoma
HCC-2998 colon = system: HCC-2998 colon
XF 498 CNS = system: XF 498 CNS
MOLT-4 leukemia = system: MOLT-4 leukemia
UACC-257 melanoma = system: UACC-257 melanoma
SK-OV-3 ovarian = system: SK-OV-3 ovarian
EKVX NSCLC = system: EKVX NSCLC
KM12 colon = system: KM12 colon
M19-MEL melanoma = system: M19-MEL melanoma
IGROV1 ovarian = system: IGROV1 ovarian
SK-MEL-2 melanoma = system: SK-MEL-2 melanoma
CAKI-1 renal = system: CAKI-1 renal
HOP-92 NSCLC = system: HOP-92 NSCLC
OVCAR-8 ovarian = system: OVCAR-8 ovarian
OVCAR-3 ovarian = system: OVCAR-3 ovarian
DLD-1 colon = system: DLD-1 colon
HCT-116 colon = system: HCT-116 colon
A498 renal = system: A498 renal
SF-295 CNS = system: SF-295 CNS
DMS 273 small cell lung = system: DMS 273 small cell lung
LXFL 529 NSCLC = system: LXFL 529 NSCLC
OVCAR-5 ovarian = system: OVCAR-5 ovarian
UO-31 renal = system: UO-31 renal
NCI-H522 lung = system: NCI-H522 lung
M14 melanoma = system: M14 melanoma
K-562 leukemia = system: K-562 leukemia
HL-60(TB) leukemia = system: HL-60(TB) leukemia
COLO 205 colon = system: COLO 205 colon
HT29 colon = system: HT29 colon
NCI-H23 lung = system: NCI-H23 lung
ACHN renal = system: ACHN renal
MALME-3M melanoma = system: MALME-3M melanoma
HCT-15 colon = system: HCT-15 colon
TK-10 renal = system: TK-10 renal
CCRF-CEM leukemia = system: CCRF-CEM leukemia
RPMI-8226 leukemia = system: RPMI-8226 leukemia
A549 NSCLC = system: A549 NSCLC
SNB-19 CNS = system: SNB-19 CNS
RXF 393 renal = system: RXF 393 renal
SK-MEL-5 melanoma = system: SK-MEL-5 melanoma
NCI-H460 lung = system: NCI-H460 lung
OVCAR-4 ovarian = system: OVCAR-4 ovarian
NCI-H226 lung = system: NCI-H226 lung
LOX IMVI melanoma = system: LOX IMVI melanoma
786-0 renal = system: 786-0 renal
SNB-78 CNS = system: SNB-78 CNS
SR leukemia = system: SR leukemia

Measured: TGI

CCNc1cnc2c(n1)c(=O)n(C)c(=O)n2C
not listed: NCI-H226 lung | LOX IMVI melanoma | 786-0 renal | SNB-78 CNS | SR leukemia
> 100 µM: all other assays above

CC(C)NC(C)C(C)c1ccccc1 (centres undefined)
not listed: HOP-92 NSCLC | OVCAR-5 ovarian | HL-60(TB) leukemia | HCT-15 colon | SNB-78 CNS | SR leukemia
> 100 µM: all other assays above

CC(=O)OCC(OC(C)=O)C(OC(C)=O)C(OC(C)=O)C(=O)CNn1c(-c2ccc(C)cc2)nc2ccccc2c1=O (centres undefined)
not listed: HCC-2998 colon | IGROV1 ovarian | HOP-92 NSCLC | DLD-1 colon | TK-10 renal | NCI-H226 lung
> 100 µM: all other assays above
